We go through six molecules from ChEMBL document CHEMBL1138332, “Synthesis of natural product-inspired inhibitors of Mycobacterium tuberculosis mycothiol-associated enzymes: the first inhibitors of GlcNAc-Ins deacetylase” (J Med Chem, 2007).

Assay [1] has as its target T1, Mycothiol S-conjugate amidase (Mycobacterium tuberculosis, UniProt P9WJN1).
T1 sequence (P9WJN1 whole entry): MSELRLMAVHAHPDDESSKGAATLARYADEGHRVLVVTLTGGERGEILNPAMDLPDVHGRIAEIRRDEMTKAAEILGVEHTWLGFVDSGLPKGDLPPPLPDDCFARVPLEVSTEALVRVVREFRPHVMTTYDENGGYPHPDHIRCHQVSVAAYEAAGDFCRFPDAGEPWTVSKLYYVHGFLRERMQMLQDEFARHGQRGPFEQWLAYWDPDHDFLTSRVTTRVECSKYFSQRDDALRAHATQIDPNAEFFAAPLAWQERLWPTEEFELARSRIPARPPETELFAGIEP
As to the kind of experiment: Inhibition of Mycobacterium tuberculosis MCA by fluorescence-detected HPLC assay.

The target of assay [2] is T2, 1D-myo-inositol 2-acetamido-2-deoxy-alpha-D-glucopyranoside deacetylase (Mycobacterium tuberculosis, UniProt P9WJN3).
T2 sequence (P9WJN3 whole entry): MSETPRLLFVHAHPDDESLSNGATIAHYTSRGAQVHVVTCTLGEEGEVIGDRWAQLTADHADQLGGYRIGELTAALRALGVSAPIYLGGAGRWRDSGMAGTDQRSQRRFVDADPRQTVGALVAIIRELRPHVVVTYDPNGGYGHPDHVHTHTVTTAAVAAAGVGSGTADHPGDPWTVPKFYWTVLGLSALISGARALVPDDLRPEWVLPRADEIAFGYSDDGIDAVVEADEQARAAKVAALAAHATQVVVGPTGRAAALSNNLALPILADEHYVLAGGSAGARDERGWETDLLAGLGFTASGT
Briefly: Inhibition of Mycobacterium tuberculosis MshB by fluorescence-detected HPLC assay.

Turning to `CC(C)(C)C(=O)ON[C@@H](CCc1ccccc1)C(=O)N[C@H]1[C@H](O)[C@@H](O)[C@H](CO)O[C@H]1SC1CCCCC1`, the results for the IC50 in assay [1] and in assay [2] were 145 µM and above 200 µM, respectively.

Consider `O=C(N[C@H]1[C@H](O)[C@@H](O)[C@H](CO)O[C@H]1SC1CCCCC1)c1ccc(-c2ccc(Cl)cc2)o1` (single isomer, unassigned), for which the IC50 – broadly, the concentration at which inhibition is half-maximal – in assay [1] was determined as 33 µM; in assay [2], 7 µM.

For `O=S(=O)(CCCCc1ccccc1)N[C@H]1[C@H](O)[C@@H](O)[C@H](CO)O[C@H]1SC1CCCCC1` (single isomer, unassigned), the IC50 amounted to 120 µM in assay [1] and 101 µM in assay [2].

Regarding `O=C(N[C@H]1[C@H](O)[C@@H](O)[C@H](CO)O[C@H]1SC1CCCCC1)C1CCOC(c2cccc(F)c2)=N1` (single isomer, unassigned), the IC50 is above 200 µM in assay [1] and 10 µM in assay [2].

With `O=C(N[C@H]1[C@H](O)[C@@H](O)[C@H](CO)O[C@H]1SC1CCCCC1)C1COC(c2cccc(F)c2)=N1` (single isomer, unassigned), the IC50 in assay [1] was above 200 µM; in assay [2], 28 µM.

As for `O=S(=O)(/C=C/CCc1ccccc1)N[C@H]1[C@H](O)[C@@H](O)[C@H](CO)O[C@H]1SC1CCCCC1` (single isomer, unassigned), the results for the IC50 in assay [1] and in assay [2] were 90 µM and 105 µM, respectively.
